{"source": "ChEMBL document CHEMBL1146835", "about": "“Aspermytin A: a new neurotrophic polyketide isolated from a marine-derived fungus of the genus Aspergillus” (2004)", "test_system": "PC-12", "assay": "Neurotrophic effect on rat pheochromocytoma (PC-12) cells was expressed as percent cells with neurites after 2 days treatment with 50 uM of compound", "type": "functional"}
{"smiles": "C[C@H]1CCC2[C@@H](C=C[C@@](C)(O)[C@]2(C)C(=O)CCO)C1", "note": "(stereo partly specified)", "values": [{"measurement": "Cells", "result": ">50", "unit": "%"}]}
